Data taken from the CheMixHub drug solubility set.

Test: xn = mol fraction of the nth substance listed, in the solute-free solvent

Nc1cccc2ccncc12 + CCO + O
solubility (g/100 g solution) (278.15 K, x2 = 0.04165): 0.0455 | solubility (g/100 g solution) (278.15 K, x2 = 0.08908): 0.0727 | solubility (g/100 g solution) (278.15 K, x2 = 0.1436): 0.111 | solubility (g/100 g solution) (278.15 K, x2 = 0.2068): 0.162 | solubility (g/100 g solution) (278.15 K, x2 = 0.2812): 0.211 | solubility (g/100 g solution) (278.15 K, x2 = 0.3698): 0.271 | solubility (g/100 g solution) (278.15 K, x2 = 0.4772): 0.308 | solubility (g/100 g solution) (278.15 K, x2 = 0.6101): 0.364 | solubility (g/100 g solution) (278.15 K, x2 = 0.7788): 0.383 | solubility (g/100 g solution) (283.15 K, x2 = 0.04165): 0.0527 | solubility (g/100 g solution) (283.15 K, x2 = 0.08908): 0.084 | solubility (g/100 g solution) (283.15 K, x2 = 0.1436): 0.129 | solubility (g/100 g solution) (283.15 K, x2 = 0.2068): 0.187 | solubility (g/100 g solution) (283.15 K, x2 = 0.2812): 0.244 | solubility (g/100 g solution) (283.15 K, x2 = 0.3698): 0.315 | solubility (g/100 g solution) (283.15 K, x2 = 0.4772): 0.371 | solubility (g/100 g solution) (283.15 K, x2 = 0.6101): 0.432 | solubility (g/100 g solution) (283.15 K, x2 = 0.7788): 0.459 | solubility (g/100 g solution) (288.15 K, x2 = 0.04165): 0.0604 | solubility (g/100 g solution) (288.15 K, x2 = 0.08908): 0.0965 | solubility (g/100 g solution) (288.15 K, x2 = 0.1436): 0.148 | solubility (g/100 g solution) (288.15 K, x2 = 0.2068): 0.215 | solubility (g/100 g solution) (288.15 K, x2 = 0.2812): 0.286 | solubility (g/100 g solution) (288.15 K, x2 = 0.3698): 0.371 | solubility (g/100 g solution) (288.15 K, x2 = 0.4772): 0.437 | solubility (g/100 g solution) (288.15 K, x2 = 0.6101): 0.522 | solubility (g/100 g solution) (288.15 K, x2 = 0.7788): 0.559 | solubility (g/100 g solution) (293.15 K, x2 = 0.04165): 0.0712 | solubility (g/100 g solution) (293.15 K, x2 = 0.08908): 0.113 | solubility (g/100 g solution) (293.15 K, x2 = 0.1436): 0.172 | solubility (g/100 g solution) (293.15 K, x2 = 0.2068): 0.25 | solubility (g/100 g solution) (293.15 K, x2 = 0.2812): 0.338 | solubility (g/100 g solution) (293.15 K, x2 = 0.3698): 0.441 | solubility (g/100 g solution) (293.15 K, x2 = 0.4772): 0.522 | solubility (g/100 g solution) (293.15 K, x2 = 0.6101): 0.614 | solubility (g/100 g solution) (293.15 K, x2 = 0.7788): 0.658 | solubility (g/100 g solution) (298.15 K, x2 = 0.04165): 0.0812 | solubility (g/100 g solution) (298.15 K, x2 = 0.08908): 0.129 | solubility (g/100 g solution) (298.15 K, x2 = 0.1436): 0.197 | solubility (g/100 g solution) (298.15 K, x2 = 0.2068): 0.287 | solubility (g/100 g solution) (298.15 K, x2 = 0.2812): 0.39 | solubility (g/100 g solution) (298.15 K, x2 = 0.3698): 0.51 | solubility (g/100 g solution) (298.15 K, x2 = 0.4772): 0.618 | solubility (g/100 g solution) (298.15 K, x2 = 0.6101): 0.718 | solubility (g/100 g solution) (298.15 K, x2 = 0.7788): 0.77 | solubility (g/100 g solution) (303.15 K, x2 = 0.04165): 0.0941 | solubility (g/100 g solution) (303.15 K, x2 = 0.08908): 0.149 | solubility (g/100 g solution) (303.15 K, x2 = 0.1436): 0.228 | solubility (g/100 g solution) (303.15 K, x2 = 0.2068): 0.332 | solubility (g/100 g solution) (303.15 K, x2 = 0.2812): 0.45 | solubility (g/100 g solution) (303.15 K, x2 = 0.3698): 0.589 | solubility (g/100 g solution) (303.15 K, x2 = 0.4772): 0.722 | solubility (g/100 g solution) (303.15 K, x2 = 0.6101): 0.835 | solubility (g/100 g solution) (303.15 K, x2 = 0.7788): 0.902 | solubility (g/100 g solution) (308.15 K, x2 = 0.04165): 0.11 | solubility (g/100 g solution) (308.15 K, x2 = 0.08908): 0.174 | solubility (g/100 g solution) (308.15 K, x2 = 0.1436): 0.266 | solubility (g/100 g solution) (308.15 K, x2 = 0.2068): 0.387 | solubility (g/100 g solution) (308.15 K, x2 = 0.2812): 0.52 | solubility (g/100 g solution) (308.15 K, x2 = 0.3698): 0.685 | solubility (g/100 g solution) (308.15 K, x2 = 0.4772): 0.846 | solubility (g/100 g solution) (308.15 K, x2 = 0.6101): 0.975 | solubility (g/100 g solution) (308.15 K, x2 = 0.7788): 1.06 | solubility (g/100 g solution) (313.15 K, x2 = 0.04165): 0.128 | solubility (g/100 g solution) (313.15 K, x2 = 0.08908): 0.202 | solubility (g/100 g solution) (313.15 K, x2 = 0.1436): 0.308 | solubility (g/100 g solution) (313.15 K, x2 = 0.2068): 0.448 | solubility (g/100 g solution) (313.15 K, x2 = 0.2812): 0.604 | solubility (g/100 g solution) (313.15 K, x2 = 0.3698): 0.794 | solubility (g/100 g solution) (313.15 K, x2 = 0.4772): 0.987 | solubility (g/100 g solution) (313.15 K, x2 = 0.6101): 1.13 | solubility (g/100 g solution) (313.15 K, x2 = 0.7788): 1.25 | solubility (g/100 g solution) (318.15 K, x2 = 0.04165): 0.147 | solubility (g/100 g solution) (318.15 K, x2 = 0.08908): 0.233 | solubility (g/100 g solution) (318.15 K, x2 = 0.1436): 0.355 | solubility (g/100 g solution) (318.15 K, x2 = 0.2068): 0.517 | solubility (g/100 g solution) (318.15 K, x2 = 0.2812): 0.697 | solubility (g/100 g solution) (318.15 K, x2 = 0.3698): 0.922 | solubility (g/100 g solution) (318.15 K, x2 = 0.4772): 1.14 | solubility (g/100 g solution) (318.15 K, x2 = 0.6101): 1.33 | solubility (g/100 g solution) (318.15 K, x2 = 0.7788): 1.47 | solubility (g/100 g solution) (323.15 K, x2 = 0.04165): 0.171 | solubility (g/100 g solution) (323.15 K, x2 = 0.08908): 0.271 | solubility (g/100 g solution) (323.15 K, x2 = 0.1436): 0.413 | solubility (g/100 g solution) (323.15 K, x2 = 0.2068): 0.602 | solubility (g/100 g solution) (323.15 K, x2 = 0.2812): 0.809 | solubility (g/100 g solution) (323.15 K, x2 = 0.3698): 1.08 | solubility (g/100 g solution) (323.15 K, x2 = 0.4772): 1.33 | solubility (g/100 g solution) (323.15 K, x2 = 0.6101): 1.56 | solubility (g/100 g solution) (323.15 K, x2 = 0.7788): 1.73

NC(Cc1c[nH]c2ccccc12)C(=O)O (stereo not given) + O + CO
solubility (g/100 g solution) (288.15 K, x2 = 0.1908): 0.556 | solubility (g/100 g solution) (288.15 K, x2 = 0.3955): 0.677 | solubility (g/100 g solution) (288.15 K, x2 = 0.595): 0.827 | solubility (g/100 g solution) (288.15 K, x2 = 0.7962): 1.02 | solubility (g/100 g solution) (293.15 K, x2 = 0.1908): 0.608 | solubility (g/100 g solution) (293.15 K, x2 = 0.3955): 0.741 | solubility (g/100 g solution) (293.15 K, x2 = 0.595): 0.902 | solubility (g/100 g solution) (293.15 K, x2 = 0.7962): 1.11 | solubility (g/100 g solution) (298.15 K, x2 = 0.1908): 0.684 | solubility (g/100 g solution) (298.15 K, x2 = 0.3955): 0.831 | solubility (g/100 g solution) (298.15 K, x2 = 0.595): 1.01 | solubility (g/100 g solution) (298.15 K, x2 = 0.7962): 1.23 | solubility (g/100 g solution) (303.15 K, x2 = 0.1908): 0.776 | solubility (g/100 g solution) (303.15 K, x2 = 0.3955): 0.94 | solubility (g/100 g solution) (303.15 K, x2 = 0.595): 1.14 | solubility (g/100 g solution) (303.15 K, x2 = 0.7962): 1.38 | solubility (g/100 g solution) (308.15 K, x2 = 0.1908): 0.875 | solubility (g/100 g solution) (308.15 K, x2 = 0.3955): 1.06 | solubility (g/100 g solution) (308.15 K, x2 = 0.595): 1.28 | solubility (g/100 g solution) (308.15 K, x2 = 0.7962): 1.56
